According to PMC11233931, “Remodeling tumor‐associated macrophage for anti‐cancer effects by rational design of irreversible inhibition of mitogen‐activated protein kinase‐activated protein kinase 2” (MedComm, 2024):
Read-outs that look alike come from different tables or passages of the source.

Key:
Experiment in all cases: Eurofins kinase selectivity profile against 380 other human recombinant kinases (Table S2)
Format in all cases: biochemical
[1] = biological target: T1, 380 human recombinant protein kinases (Homo sapiens, UniProt Q15746); conditions: MLCK(h), read-out: Inhibition rate
T1 construct: purchased Eurofins (Celle Lévescault)
Summary of the method: (§1)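 The inhibitor was sent to a contract lab and screened at various concentrations against 380 human recombinant protein kinases. This served as a counter-screen for MK2 specificity.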

[2] = biological target: T2, 380 human recombinant protein kinases (Homo sapiens, UniProt Q86UX6); conditions: STK32C(h), read-out: Inhibition rate (%)
T2 construct: purchased Eurofins (Celle Lévescault)
Summary of the method: as §1

[3] = biological target: T3, 380 human recombinant protein kinases (Homo sapiens, UniProt Q9UKE5); conditions: TNIK(h), read-out: Inhibition rate (%)
T3 construct: purchased Eurofins (Celle Lévescault)
Summary of the method: as §1

[4] = biological target: T4, 380 human recombinant protein kinases (Homo sapiens, UniProt Q9NY57); conditions: STK32B(h), read-out: Inhibition rate (%)
T4 construct: purchased Eurofins (Celle Lévescault)
Summary of the method: as §1

[5] = biological target: T5, 380 human recombinant protein kinases (Homo sapiens, UniProt P29317); conditions: EphA2(h), read-out: Inhibition rate
T5 construct: purchased Eurofins (Celle Lévescault)
Summary of the method: as §1

[6] = biological target: T6, 380 human recombinant protein kinases (Homo sapiens, UniProt Q8TDR2); conditions: CLIK1(h), read-out: Inhibition rate
T6 construct: purchased Eurofins (Celle Lévescault)
Summary of the method: as §1

[7] = biological target: T7, 380 human recombinant protein kinases (Homo sapiens, UniProt Q9Y6E0); conditions: MST3(h), read-out: Inhibition rate
T7 construct: purchased Eurofins (Celle Lévescault)
Summary of the method: as §1

[8] = biological target: T8, 380 human recombinant protein kinases (Homo sapiens, UniProt P54756); conditions: EphA5(h), read-out: Inhibition rate
T8 construct: purchased Eurofins (Celle Lévescault)
Summary of the method: as §1

[9] = biological target: T9, 380 human recombinant protein kinases (Homo sapiens, UniProt O00444); conditions: Plk4(h), read-out: Inhibition rate
T9 construct: purchased Eurofins (Celle Lévescault)
T9 sequence (O00444 1-970): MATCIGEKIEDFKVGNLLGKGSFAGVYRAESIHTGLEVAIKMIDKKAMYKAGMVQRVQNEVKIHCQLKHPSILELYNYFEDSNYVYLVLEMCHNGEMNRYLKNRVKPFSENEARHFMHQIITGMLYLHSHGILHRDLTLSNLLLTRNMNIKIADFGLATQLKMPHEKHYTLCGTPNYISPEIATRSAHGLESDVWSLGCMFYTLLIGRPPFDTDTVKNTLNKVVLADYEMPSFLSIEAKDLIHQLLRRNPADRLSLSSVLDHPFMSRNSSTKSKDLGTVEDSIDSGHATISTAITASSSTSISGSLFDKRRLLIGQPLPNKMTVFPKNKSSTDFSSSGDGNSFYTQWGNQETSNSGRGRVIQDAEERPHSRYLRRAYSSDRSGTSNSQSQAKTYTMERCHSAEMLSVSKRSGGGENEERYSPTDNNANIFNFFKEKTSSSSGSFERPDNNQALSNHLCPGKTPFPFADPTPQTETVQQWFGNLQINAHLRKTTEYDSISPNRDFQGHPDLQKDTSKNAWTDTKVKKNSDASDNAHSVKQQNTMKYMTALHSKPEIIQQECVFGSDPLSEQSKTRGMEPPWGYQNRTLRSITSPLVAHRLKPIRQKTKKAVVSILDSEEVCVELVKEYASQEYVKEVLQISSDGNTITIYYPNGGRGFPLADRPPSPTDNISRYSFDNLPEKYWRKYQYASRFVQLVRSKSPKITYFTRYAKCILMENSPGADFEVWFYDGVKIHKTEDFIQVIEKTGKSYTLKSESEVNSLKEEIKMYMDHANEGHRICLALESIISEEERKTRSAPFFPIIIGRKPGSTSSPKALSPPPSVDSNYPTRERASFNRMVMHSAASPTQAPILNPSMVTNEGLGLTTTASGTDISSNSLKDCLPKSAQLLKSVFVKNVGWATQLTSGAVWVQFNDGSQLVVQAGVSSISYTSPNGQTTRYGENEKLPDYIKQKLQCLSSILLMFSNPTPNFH
Summary of the method: as §1

[10] = biological target: T10, 380 human recombinant protein kinases (Homo sapiens, UniProt Q8IU85); conditions: CaMKIδ(h), read-out: Inhibition rate
T10 construct: purchased Eurofins (Celle Lévescault)
Summary of the method: as §1

[11] = biological target: T11, 380 human recombinant protein kinases (Homo sapiens, UniProt P12931); conditions: for inhibition at 0.01 µM: 10 nM; for inhibition at 0.1 µM: 100 nM; for inhibition at 1 µM: 1000 nM
T11 construct: purchased Eurofins (Celle Lévescault)
Summary of the method: as §1

[12] = biological target: T12, 380 human recombinant protein kinases (Homo sapiens, UniProt Q5TCY1); conditions: TTBK1(h), read-out: Inhibition rate (%)
T12 construct: purchased Eurofins (Celle Lévescault)
Summary of the method: as §1

[13] = biological target: T13, 380 human recombinant protein kinases (Homo sapiens, UniProt P51957); conditions: NEK4(h), read-out: Inhibition rate
T13 construct: purchased Eurofins (Celle Lévescault)
Summary of the method: as §1

[14] = biological target: T14, 380 human recombinant protein kinases (Homo sapiens, UniProt Q13535); conditions: ATR/ATRIP(h), read-out: Inhibition rate (%)
T14 construct: purchased Eurofins (Celle Lévescault)
Summary of the method: as §1

[15] = Src(1-530)(h), read-out: Inhibition rate (%)
[16] = cSRC(h), read-out: Inhibition rate

T13 sequence (P51957 whole entry): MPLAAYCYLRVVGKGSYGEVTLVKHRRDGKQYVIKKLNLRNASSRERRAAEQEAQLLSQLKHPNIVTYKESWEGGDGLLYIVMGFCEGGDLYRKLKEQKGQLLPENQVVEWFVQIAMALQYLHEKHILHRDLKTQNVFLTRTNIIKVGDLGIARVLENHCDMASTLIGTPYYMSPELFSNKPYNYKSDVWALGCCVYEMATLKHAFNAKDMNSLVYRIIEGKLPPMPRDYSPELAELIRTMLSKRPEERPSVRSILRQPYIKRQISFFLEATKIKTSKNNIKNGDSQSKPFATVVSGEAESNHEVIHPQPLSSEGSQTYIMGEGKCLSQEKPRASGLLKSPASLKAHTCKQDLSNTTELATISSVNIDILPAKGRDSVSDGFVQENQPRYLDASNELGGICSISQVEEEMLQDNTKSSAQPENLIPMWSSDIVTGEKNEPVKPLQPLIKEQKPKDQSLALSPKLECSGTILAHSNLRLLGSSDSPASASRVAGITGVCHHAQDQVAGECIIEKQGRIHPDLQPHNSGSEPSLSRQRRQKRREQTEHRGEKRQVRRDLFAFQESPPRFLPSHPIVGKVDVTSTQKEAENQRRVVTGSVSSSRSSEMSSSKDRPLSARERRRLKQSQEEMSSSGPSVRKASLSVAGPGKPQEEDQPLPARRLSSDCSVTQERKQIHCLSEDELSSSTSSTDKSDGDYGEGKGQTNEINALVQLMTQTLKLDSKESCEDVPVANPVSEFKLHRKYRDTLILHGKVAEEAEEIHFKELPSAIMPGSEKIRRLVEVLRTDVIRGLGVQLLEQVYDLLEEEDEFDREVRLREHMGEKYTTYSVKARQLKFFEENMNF
T10 sequence (Q8IU85 whole entry): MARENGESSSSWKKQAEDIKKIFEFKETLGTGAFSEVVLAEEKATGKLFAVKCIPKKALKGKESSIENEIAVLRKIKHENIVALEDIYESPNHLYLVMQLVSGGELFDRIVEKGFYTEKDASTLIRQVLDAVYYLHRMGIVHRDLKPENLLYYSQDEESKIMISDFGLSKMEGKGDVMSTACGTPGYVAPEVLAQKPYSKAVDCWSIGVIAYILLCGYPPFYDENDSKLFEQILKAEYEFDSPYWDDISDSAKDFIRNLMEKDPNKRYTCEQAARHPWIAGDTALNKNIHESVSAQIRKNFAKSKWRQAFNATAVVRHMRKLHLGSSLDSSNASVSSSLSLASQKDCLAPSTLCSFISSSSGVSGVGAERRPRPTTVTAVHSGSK
T12 sequence (Q5TCY1 whole entry): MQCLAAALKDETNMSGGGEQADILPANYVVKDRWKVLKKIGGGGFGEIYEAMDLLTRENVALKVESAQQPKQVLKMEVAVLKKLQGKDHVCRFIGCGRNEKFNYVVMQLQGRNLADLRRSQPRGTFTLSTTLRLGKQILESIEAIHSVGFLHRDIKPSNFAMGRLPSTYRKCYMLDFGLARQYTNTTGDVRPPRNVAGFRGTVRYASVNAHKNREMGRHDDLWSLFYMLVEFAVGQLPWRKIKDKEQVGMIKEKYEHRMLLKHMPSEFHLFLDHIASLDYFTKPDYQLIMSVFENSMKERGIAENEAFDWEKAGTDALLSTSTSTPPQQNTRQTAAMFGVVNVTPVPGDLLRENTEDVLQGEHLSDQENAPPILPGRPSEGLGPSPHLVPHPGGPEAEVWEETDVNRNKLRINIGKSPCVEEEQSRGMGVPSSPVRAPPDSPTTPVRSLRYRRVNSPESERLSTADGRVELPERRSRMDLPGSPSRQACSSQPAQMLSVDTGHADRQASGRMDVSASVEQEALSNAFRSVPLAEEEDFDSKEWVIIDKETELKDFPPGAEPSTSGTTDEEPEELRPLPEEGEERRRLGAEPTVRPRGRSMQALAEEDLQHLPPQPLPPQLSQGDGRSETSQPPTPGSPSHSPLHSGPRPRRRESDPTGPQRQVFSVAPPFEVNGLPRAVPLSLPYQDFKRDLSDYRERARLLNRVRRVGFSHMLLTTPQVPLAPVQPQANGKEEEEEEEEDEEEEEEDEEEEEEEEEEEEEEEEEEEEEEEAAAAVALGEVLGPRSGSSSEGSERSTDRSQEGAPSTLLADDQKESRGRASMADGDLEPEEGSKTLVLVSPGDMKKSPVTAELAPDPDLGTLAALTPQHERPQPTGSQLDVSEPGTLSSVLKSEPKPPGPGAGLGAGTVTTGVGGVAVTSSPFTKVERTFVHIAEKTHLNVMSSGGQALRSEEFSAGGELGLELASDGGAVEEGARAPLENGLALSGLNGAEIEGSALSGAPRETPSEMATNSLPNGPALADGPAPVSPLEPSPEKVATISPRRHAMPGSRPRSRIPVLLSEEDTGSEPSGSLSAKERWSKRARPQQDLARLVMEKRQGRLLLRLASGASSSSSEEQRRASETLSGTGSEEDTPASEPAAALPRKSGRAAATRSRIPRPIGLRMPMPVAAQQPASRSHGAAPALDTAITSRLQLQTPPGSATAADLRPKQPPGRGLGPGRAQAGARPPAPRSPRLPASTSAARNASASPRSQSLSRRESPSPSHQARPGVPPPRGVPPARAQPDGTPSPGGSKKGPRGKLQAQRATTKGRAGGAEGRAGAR
T6 sequence (Q8TDR2 whole entry): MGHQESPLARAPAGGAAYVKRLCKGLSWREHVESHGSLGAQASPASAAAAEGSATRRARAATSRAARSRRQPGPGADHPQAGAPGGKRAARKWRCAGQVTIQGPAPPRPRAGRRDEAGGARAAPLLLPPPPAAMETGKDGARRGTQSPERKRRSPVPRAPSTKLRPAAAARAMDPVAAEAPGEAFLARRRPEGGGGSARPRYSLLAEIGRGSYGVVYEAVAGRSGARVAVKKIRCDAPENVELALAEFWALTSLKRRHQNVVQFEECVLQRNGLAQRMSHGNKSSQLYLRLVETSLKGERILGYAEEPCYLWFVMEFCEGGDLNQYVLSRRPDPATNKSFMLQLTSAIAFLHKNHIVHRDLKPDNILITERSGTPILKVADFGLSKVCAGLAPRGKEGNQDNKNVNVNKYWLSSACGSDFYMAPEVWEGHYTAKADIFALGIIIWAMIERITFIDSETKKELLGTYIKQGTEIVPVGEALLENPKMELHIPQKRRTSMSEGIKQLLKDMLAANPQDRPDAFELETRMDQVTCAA
T5 sequence (P29317 24-976): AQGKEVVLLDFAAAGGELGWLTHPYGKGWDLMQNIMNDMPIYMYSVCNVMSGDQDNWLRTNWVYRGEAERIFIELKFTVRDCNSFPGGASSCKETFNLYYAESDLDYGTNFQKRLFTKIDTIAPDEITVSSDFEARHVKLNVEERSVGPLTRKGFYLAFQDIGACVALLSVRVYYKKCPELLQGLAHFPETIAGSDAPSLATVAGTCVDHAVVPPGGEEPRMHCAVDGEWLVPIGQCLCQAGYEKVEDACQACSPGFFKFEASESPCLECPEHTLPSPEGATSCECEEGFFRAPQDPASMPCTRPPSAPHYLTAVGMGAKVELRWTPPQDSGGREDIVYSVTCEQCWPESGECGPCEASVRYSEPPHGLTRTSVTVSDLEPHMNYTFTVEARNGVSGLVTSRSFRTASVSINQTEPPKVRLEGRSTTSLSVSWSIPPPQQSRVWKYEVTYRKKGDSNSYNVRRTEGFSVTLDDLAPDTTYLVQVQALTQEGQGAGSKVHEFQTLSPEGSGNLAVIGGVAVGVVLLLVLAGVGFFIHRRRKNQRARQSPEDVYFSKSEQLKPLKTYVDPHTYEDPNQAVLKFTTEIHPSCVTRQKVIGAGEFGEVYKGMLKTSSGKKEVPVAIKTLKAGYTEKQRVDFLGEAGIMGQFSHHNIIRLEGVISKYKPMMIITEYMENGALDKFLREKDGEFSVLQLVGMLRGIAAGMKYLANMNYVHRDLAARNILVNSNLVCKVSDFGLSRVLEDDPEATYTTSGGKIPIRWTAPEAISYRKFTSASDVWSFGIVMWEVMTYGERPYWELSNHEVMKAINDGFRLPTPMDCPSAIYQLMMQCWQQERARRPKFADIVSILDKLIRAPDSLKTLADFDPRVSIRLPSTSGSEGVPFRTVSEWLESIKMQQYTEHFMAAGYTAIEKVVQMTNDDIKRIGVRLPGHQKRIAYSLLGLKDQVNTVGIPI
T2 sequence (Q86UX6 whole entry): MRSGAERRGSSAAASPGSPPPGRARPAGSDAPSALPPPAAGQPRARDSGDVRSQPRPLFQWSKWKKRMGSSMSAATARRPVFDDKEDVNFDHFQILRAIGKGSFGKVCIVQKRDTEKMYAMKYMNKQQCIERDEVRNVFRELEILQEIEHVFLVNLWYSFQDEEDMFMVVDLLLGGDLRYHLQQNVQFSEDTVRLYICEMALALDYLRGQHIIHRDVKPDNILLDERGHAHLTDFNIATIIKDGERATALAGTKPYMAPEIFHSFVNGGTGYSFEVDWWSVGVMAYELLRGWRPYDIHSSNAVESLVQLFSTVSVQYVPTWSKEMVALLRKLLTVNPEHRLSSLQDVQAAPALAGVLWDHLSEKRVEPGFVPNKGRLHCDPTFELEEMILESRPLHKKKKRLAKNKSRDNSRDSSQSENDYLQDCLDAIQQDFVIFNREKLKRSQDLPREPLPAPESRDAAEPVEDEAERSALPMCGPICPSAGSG
T11 sequence (P12931 whole entry): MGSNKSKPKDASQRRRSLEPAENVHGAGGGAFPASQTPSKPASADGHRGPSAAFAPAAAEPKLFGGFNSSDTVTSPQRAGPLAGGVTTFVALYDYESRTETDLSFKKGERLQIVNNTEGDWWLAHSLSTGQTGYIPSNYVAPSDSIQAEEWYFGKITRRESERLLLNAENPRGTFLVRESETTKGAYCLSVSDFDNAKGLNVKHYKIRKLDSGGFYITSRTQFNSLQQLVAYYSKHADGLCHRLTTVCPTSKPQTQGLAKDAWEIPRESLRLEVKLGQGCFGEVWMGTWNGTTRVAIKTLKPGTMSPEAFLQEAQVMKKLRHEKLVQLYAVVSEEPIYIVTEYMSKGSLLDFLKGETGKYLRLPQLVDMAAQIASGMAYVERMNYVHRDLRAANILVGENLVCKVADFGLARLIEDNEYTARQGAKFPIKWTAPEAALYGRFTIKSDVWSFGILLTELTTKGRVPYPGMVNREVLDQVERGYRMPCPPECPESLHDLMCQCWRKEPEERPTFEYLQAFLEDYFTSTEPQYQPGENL

Compound: C=CC(=O)Nc1cc(-c2cc(-c3cc4c([nH]3)CCNC4=O)ccn2)ccc1OC(F)(F)F [compound 11]
- inhibition at 0.01 µM ([1]; 10 nM): -10%
- inhibition at 0.1 µM ([1]; 100 nM): 0%
- inhibition at 1 µM ([1]; 1000 nM): 34%
- inhibition at 0.01 µM ([2]; 10 nM): 0%
- inhibition at 0.1 µM ([2]; 100 nM): 4%
- inhibition at 1 µM ([2]; 1000 nM): 1%
- inhibition at 0.01 µM ([3]; 10 nM): -12%
- inhibition at 0.1 µM ([3]; 100 nM): 9%
- inhibition at 1 µM ([3]; 1000 nM): 42%
- inhibition at 0.01 µM ([4]; 10 nM): -9%
- inhibition at 0.1 µM ([4]; 100 nM): -5%
- inhibition at 1 µM ([4]; 1000 nM): -3%
- inhibition at 0.01 µM ([5]; 10 nM): 0%
- inhibition at 0.1 µM ([5]; 100 nM): 3%
- inhibition at 1 µM ([5]; 1000 nM): -2%
- inhibition at 0.01 µM ([6]; 10 nM): 5%
- inhibition at 0.1 µM ([6]; 100 nM): 33%
- inhibition at 1 µM ([6]; 1000 nM): 65%
- inhibition at 0.01 µM ([7]; 10 nM): -6%
- inhibition at 0.1 µM ([7]; 100 nM): 2%
- inhibition at 1 µM ([7]; 1000 nM): 2%
- inhibition at 0.01 µM ([8]; 10 nM): -1%
- inhibition at 0.1 µM ([8]; 100 nM): 4%
- inhibition at 1 µM ([8]; 1000 nM): 1%
- inhibition at 0.01 µM ([9]; 10 nM): 9%
- inhibition at 0.1 µM ([9]; 100 nM): 4%
- inhibition at 1 µM ([9]; 1000 nM): 33%
- inhibition at 0.01 µM ([10]; 10 nM): -3%
- inhibition at 0.1 µM ([10]; 100 nM): -6%
- inhibition at 1 µM ([10]; 1000 nM): 1%
- inhibition at 0.01 µM [11, 15]: 6%
- inhibition at 0.1 µM [11, 15]: 5%
- inhibition at 1 µM [11, 15]: -1%
- inhibition at 0.01 µM [11, 16]: 1%
- inhibition at 0.1 µM [11, 16]: 8%
- inhibition at 1 µM [11, 16]: 10%
- inhibition at 0.01 µM ([12]; 10 nM): -2%
- inhibition at 0.1 µM ([12]; 100 nM): -5%
- inhibition at 1 µM ([12]; 1000 nM): 3%
- inhibition at 0.01 µM ([13]; 10 nM): -2%
- inhibition at 0.1 µM ([13]; 100 nM): 5%
- inhibition at 1 µM ([13]; 1000 nM): 34%
- inhibition at 0.01 µM ([14]; 10 nM): -15%
- inhibition at 0.1 µM ([14]; 100 nM): -17%
- inhibition at 1 µM ([14]; 1000 nM): -20%
